{"source": "ChEMBL document CHEMBL4825749", "about": "“Pyrimidine-2,4-dione targets STAT3 signaling pathway to induce cytotoxicity in hepatocellular carcinoma cells” (Bioorg Med Chem Lett, 2021)", "key": {"HepG2 [1]": {"tested_on": "HepG2", "assay": "Cytotoxicity against human HepG2 cells assessed as reduction in cell viability measured upto 72 hrs by MTT assay", "format": "functional, cell-based", "conditions": "HepG2, 72 h"}, "[2]": {"assay": "Cytotoxicity against human HCCLM3 cells assessed as reduction in cell viability measured upto 72 hrs by MTT assay", "format": "functional, cell-based", "conditions": "HCCLM3, 72 h"}, "HepG2 [3]": {"tested_on": "HepG2", "assay": "Cytotoxicity against human HepG2 cells assessed as cell viability up to 50 uM measured upto 72 hrs by MTT assay", "format": "functional, cell-based", "conditions": "dose microM <=50, time hrs <=72"}, "HCCLM3 [4]": {"tested_on": "HCCLM3", "assay": "Cytotoxicity against human HCCLM3 cells assessed as cell viability up to 50 uM measured upto 72 hrs by MTT assay", "format": "functional, cell-based", "conditions": "dose microM <=50, time hrs <=72"}, "HCCLM3 [5]": {"tested_on": "HCCLM3", "assay": "Induction of apoptosis in human HCCLM3 cells assessed as decrease in Survivin expression at 25 uM by measured up to 48 hrs Western blot analysis", "format": "functional, cell-based", "conditions": "time hrs <=48"}, "[6]": {"assay": "Induction of cell cycle arrest in human HCCLM3 cells assessed as accumulation sub-G1 phase at 50 uM incubated for 48 hrs by propidium iodide staining based flow cytometry analysis relative to control", "format": "functional"}, "[7]": {"molecular_target": "Signal transducer and activator of transcription 3 (Homo sapiens) (UniProt P40763)", "sequence (P40763 whole entry)": "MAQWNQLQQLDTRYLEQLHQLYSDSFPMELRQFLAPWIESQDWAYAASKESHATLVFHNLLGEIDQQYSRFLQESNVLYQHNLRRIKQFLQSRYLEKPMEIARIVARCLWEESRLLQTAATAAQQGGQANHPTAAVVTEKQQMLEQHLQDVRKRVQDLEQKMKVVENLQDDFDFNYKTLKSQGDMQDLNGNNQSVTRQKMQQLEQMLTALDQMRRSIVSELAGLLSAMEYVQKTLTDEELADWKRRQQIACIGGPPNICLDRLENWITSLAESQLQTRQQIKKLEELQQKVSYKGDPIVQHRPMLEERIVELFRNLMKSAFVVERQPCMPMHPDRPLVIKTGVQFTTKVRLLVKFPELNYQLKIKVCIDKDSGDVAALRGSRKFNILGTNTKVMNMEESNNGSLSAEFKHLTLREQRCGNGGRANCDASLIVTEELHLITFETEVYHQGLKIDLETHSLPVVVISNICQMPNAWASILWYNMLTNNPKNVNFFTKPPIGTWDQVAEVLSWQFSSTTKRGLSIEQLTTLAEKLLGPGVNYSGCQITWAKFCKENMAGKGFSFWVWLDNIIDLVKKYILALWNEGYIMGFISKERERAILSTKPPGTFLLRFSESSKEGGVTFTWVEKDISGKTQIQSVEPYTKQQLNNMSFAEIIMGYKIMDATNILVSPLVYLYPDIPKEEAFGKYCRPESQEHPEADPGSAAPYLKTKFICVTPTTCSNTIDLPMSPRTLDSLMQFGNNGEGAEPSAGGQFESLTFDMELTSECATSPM", "assay": "Inhibition of STAT3 activation in human HepG2 cells assessed as decrease in STAT3 phosphorylation at Y705 residue at 25 uM by Western blot analysis", "format": "cell-based", "conditions": "time hrs <=12, TDE = time-dependent effect"}, "HCCLM3 [8]": {"tested_on": "HCCLM3", "assay": "Induction of apoptosis in human HCCLM3 cells assessed as increase in Cleaved caspase-3 expression at 25 uM by measured up to 48 hrs Western blot analysis", "format": "functional, cell-based", "conditions": "time hrs <=48"}, "[9]": {"assay": "Induction of cell cycle arrest in human HCCLM3 cells assessed as accumulation sub-G1 phase at 50 uM incubated for 24 hrs by propidium iodide staining based flow cytometry analysis relative to control", "format": "functional"}, "L02": {"tested_on": "L02", "assay": "Cytotoxicity against human L02 cells assessed as cell viability measured by MTT assay", "format": "cell-based"}, "HCCLM3 [10]": {"tested_on": "HCCLM3", "assay": "Induction of apoptosis in human HCCLM3 cells assessed as decrease in Cyclin D1 expression at 25 uM by measured up to 48 hrs Western blot analysis", "format": "functional, cell-based", "conditions": "time hrs <=48"}, "[11]": {"molecular_target": "Signal transducer and activator of transcription 3 (Homo sapiens) (UniProt P40763)", "assay": "Inhibition of STAT3 in human HepG2 cell lysate assessed as suppression of STAT3-DNA interaction at 25 uM by ELISA", "format": "subcellular", "conditions": "time hrs <=12, TDE = time-dependent effect"}, "HCCLM3 [12]": {"tested_on": "HCCLM3", "assay": "Antimigratory activity against human HCCLM3 cells assessed as inhibition of cell migration at 50 uM", "format": "functional, cell-based"}, "[13]": {"molecular_target": "T1, Signal transducer and activator of transcription 5A (Homo sapiens) (UniProt P42229)", "T1 sequence (whole entry)": "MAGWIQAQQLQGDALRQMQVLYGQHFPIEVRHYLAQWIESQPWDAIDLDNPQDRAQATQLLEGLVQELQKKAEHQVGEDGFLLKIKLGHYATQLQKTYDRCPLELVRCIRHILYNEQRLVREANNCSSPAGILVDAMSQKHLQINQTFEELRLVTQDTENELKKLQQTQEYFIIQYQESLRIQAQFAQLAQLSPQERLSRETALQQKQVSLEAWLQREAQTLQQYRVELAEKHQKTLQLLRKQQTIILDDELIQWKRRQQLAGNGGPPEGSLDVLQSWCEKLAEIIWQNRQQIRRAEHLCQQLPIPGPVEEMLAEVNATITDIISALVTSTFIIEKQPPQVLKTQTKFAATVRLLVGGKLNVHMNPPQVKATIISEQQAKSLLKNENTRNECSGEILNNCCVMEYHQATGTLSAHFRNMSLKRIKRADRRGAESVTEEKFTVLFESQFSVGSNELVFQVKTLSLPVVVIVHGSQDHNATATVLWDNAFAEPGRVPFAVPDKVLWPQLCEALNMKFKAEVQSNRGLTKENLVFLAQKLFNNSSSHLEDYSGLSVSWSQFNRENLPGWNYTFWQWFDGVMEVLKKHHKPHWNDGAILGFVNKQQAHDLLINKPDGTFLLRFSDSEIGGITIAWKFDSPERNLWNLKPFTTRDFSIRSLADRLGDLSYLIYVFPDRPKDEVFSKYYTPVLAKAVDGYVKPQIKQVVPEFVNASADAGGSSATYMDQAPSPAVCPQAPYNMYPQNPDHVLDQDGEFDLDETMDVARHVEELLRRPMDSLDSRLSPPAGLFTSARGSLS", "assay": "[…] in human HCCLM3 cells assessed as decrease in STAT3 phosphorylation at Y694 residue at 25 uM by Western blot analysis", "format": "cell-based"}, "HepG2 [14]": {"tested_on": "HepG2", "assay": "Antiinvasive activity in human HepG2 cells at 50 nM incubated for 8 hrs in presence of CXCL12 by crystal violet staining based assay", "format": "functional, cell-based"}, "HCCLM3 [15]": {"tested_on": "HCCLM3", "assay": "Antiinvasive activity in human HCCLM3 cells at 50 nM incubated for 8 hrs in presence of CXCL12 by crystal violet staining based assay", "format": "functional, cell-based"}, "HepG2 [16]": {"tested_on": "HepG2", "assay": "Induction of cell cycle arrest in human HepG2 cells assessed as accumulation sub-G1 phase at 50 uM incubated for 72 hrs by propidium iodide staining based flow cytometry analysis relative to control", "format": "functional"}, "HCCLM3 [17]": {"tested_on": "HCCLM3", "assay": "Induction of apoptosis in human HCCLM3 cells assessed as decrease in Bcl2 expression at 25 uM by measured up to 48 hrs Western blot analysis", "format": "functional, cell-based", "conditions": "time hrs <=48"}, "[18]": {"assay": "Induction of cell cycle arrest in human HCCLM3 cells assessed as accumulation sub-G1 phase at 50 uM incubated for 72 hrs by propidium iodide staining based flow cytometry analysis relative to control", "format": "functional"}, "HepG2 [19]": {"tested_on": "HepG2", "assay": "Induction of cell cycle arrest in human HepG2 cells assessed as accumulation sub-G1 phase at 50 uM incubated for 24 hrs by propidium iodide staining based flow cytometry analysis relative to control", "format": "functional"}, "HepG2 [20]": {"tested_on": "HepG2", "assay": "Antimigratory activity against human HepG2 cells assessed as inhibition of cell migration at 50 uM", "format": "functional, cell-based"}, "[21]": {"molecular_target": "Signal transducer and activator of transcription 3 (Homo sapiens) (UniProt P40763)", "assay": "Inhibition of STAT3 activation in human HCCLM3 cells assessed as decrease in STAT3 phosphorylation at Y705 residue at 25 uM by Western blot analysis", "format": "cell-based", "conditions": "time hrs <=12, TDE = time-dependent effect"}, "HepG2 [22]": {"tested_on": "HepG2", "assay": "Antimigratory activity against human HepG2 cells assessed as inhibition of cell migration at 50 uM in presence of CXCL12", "format": "functional, cell-based"}, "HepG2 [23]": {"tested_on": "HepG2", "assay": "Induction of cell cycle arrest in human HepG2 cells assessed as accumulation sub-G1 phase at 50 uM incubated for 48 hrs by propidium iodide staining based flow cytometry analysis relative to control", "format": "functional"}, "[24]": {"molecular_target": "Signal transducer and activator of transcription 3 (Homo sapiens) (UniProt P40763)", "assay": "Inhibition of STAT3 in human HCCLM3 cell lysate assessed as suppression of STAT3-DNA interaction at 25 uM by ELISA", "format": "subcellular", "conditions": "time hrs <=12, TDE = time-dependent effect"}, "[25]": {"molecular_target": "T1, Signal transducer and activator of transcription 5A (Homo sapiens)", "assay": "[…] in human HepG2 cells assessed as decrease in STAT3 phosphorylation at Y694 residue at 25 uM by Western blot analysis", "format": "cell-based"}, "HCCLM3 [26]": {"tested_on": "HCCLM3", "assay": "Antimigratory activity against human HCCLM3 cells assessed as inhibition of cell migration at 50 uM in presence of CXCL12", "format": "functional, cell-based"}}, "note": "Active and inactive are the calls of the source. The rule behind the calls is not given here."}
{"smiles": "CC(C)Oc1cccc(-c2cc(=O)n(C)c(=O)[nH]2)c1", "values": [{"measurement": "IC50", "setting": "HepG2 [1]", "value": 47.6, "unit": "µM"}, {"measurement": "IC50", "setting": "[2]", "value": 41.5, "unit": "µM"}]}
{"smiles": "C[C@H](NC(=O)/C(C#N)=C/c1cccc(Br)n1)c1ccccc1", "values": [{"measurement": "Activity", "setting": "HepG2 [3]", "value": "Dose-Dependent Effect"}, {"measurement": "Activity", "setting": "HCCLM3 [4]", "value": "Dose-Dependent Effect"}]}
{"smiles": "Cn1c(=O)cc(-c2cccc3ccccc23)[nH]c1=O", "values": [{"measurement": "Activity", "setting": "HepG2 [3]", "value": "Dose-Dependent Effect"}, {"measurement": "Activity", "setting": "HCCLM3 [5]", "value": "Active"}, {"measurement": "Activity", "setting": "[6]", "value": 46.5, "unit": "%"}, {"measurement": "inhibition", "setting": "[7]", "value": "Tde"}, {"measurement": "Activity", "setting": "HCCLM3 [8]", "value": "Active"}, {"measurement": "Activity", "setting": "[9]", "value": 39.3, "unit": "%"}, {"measurement": "Activity", "setting": "L02", "value": "Toxic"}, {"measurement": "Activity", "setting": "HCCLM3 [10]", "value": "Active"}, {"measurement": "Activity", "setting": "HCCLM3 [4]", "value": "Dose-Dependent Effect"}, {"measurement": "inhibition", "setting": "[11]", "value": "Tde"}, {"measurement": "Activity", "setting": "HCCLM3 [12]", "value": "Active"}, {"measurement": "inhibition", "setting": "[13]", "value": "inactive"}, {"measurement": "Activity", "setting": "HepG2 [14]", "value": "Active"}, {"measurement": "Activity", "setting": "HCCLM3 [15]", "value": "Active"}, {"measurement": "Activity", "setting": "HepG2 [16]", "value": 67.3, "unit": "%"}, {"measurement": "IC50", "setting": "HepG2 [1]", "value": 20.9, "unit": "µM"}, {"measurement": "Activity", "setting": "HCCLM3 [17]", "value": "Active"}, {"measurement": "Activity", "setting": "[18]", "value": 67.3, "unit": "%"}, {"measurement": "Activity", "setting": "HepG2 [19]", "value": 39.3, "unit": "%"}, {"measurement": "Activity", "setting": "HepG2 [20]", "value": "Active"}, {"measurement": "inhibition", "setting": "[21]", "value": "Tde"}, {"measurement": "Activity", "setting": "HepG2 [22]", "value": "Active"}, {"measurement": "Activity", "setting": "HepG2 [23]", "value": 46.5, "unit": "%"}, {"measurement": "inhibition", "setting": "[24]", "value": "Tde"}, {"measurement": "IC50", "setting": "[2]", "value": 42.6, "unit": "µM"}, {"measurement": "inhibition", "setting": "[25]", "value": "inactive"}, {"measurement": "Activity", "setting": "HCCLM3 [26]", "value": "Active"}]}
